According to ChEMBL document CHEMBL1201862, “PubChem BioAssay data set” (2004):
The source made the active and inactive calls.

Columns and labels:
[1] = biological target: Eukaryotic translation initiation factor 4E (Mus musculus, UniProt P63073); assay: blockers of eIF4G binding by eIF4E – biochemical, TR-FRET, dose response (AID 855); type: functional;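 further: potency for disrupting eIF4E binding to eIF4GI seen as loss of FRET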
[2] = blockers of HIV-1 ZM109 envelope-driven cell-cell fusion – HeLa effector, CEM target cells, luciferase, cherry-pick, dose response (AID 652058); type: functional, cell-based;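 further: luciferase signal from HIV-1 Env mediated cell-cell fusion of effector and target cells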
[3] = viability of HCT116 lacking mutant beta-catenin – cell-based, human colon tumor, dose response (AID 1045); type: functional;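 further: HCT116 colon tumor cells with beta catenin knocked out; cells exposed to compound for 60 hours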
[4] = A Cell Based Secondary Assay To Explore Cytotoxicity of Compounds that Sensitize Mycobacterium Tuberculosis to Beta-Lactam Antibiotics.; type: functional
[5] = viability of PTEN-deleted HCT116 cells – cell-based, HCT116 PTEN knockout, dose response (AID 1047); type: functional;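 further: HCT116 colon tumor cells with PTEN knocked out; cells exposed to compound for 60 hours before readout; potency for loss of cell viability measured by luminescence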
[6] = biological target: T1, Sentrin-specific protease 8 (Homo sapiens, UniProt Q96LD8); type: functional;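 further: luminescence read-out of SENP8 inhibition, dose-response confirmation following an ultra-high-throughput screen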
T1 sequence (Q96LD8 whole entry): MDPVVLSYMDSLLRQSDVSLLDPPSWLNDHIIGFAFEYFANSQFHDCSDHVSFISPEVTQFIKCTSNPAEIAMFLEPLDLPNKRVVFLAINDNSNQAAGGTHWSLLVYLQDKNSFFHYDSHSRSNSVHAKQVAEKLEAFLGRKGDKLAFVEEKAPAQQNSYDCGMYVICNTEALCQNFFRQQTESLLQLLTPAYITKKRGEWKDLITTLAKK

Streptokinase A = biological target: T2, Streptokinase A (Streptococcus pyogenes serotype M1, UniProt P10520); assay: viability-normalized secreted streptokinase activity reduction – plasminogen activation absorbance, OD405, dose response (AID 1914); type: functional, Streptococcus pyogenes M1 GAS;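 further: secreted streptokinase activity via plasminogen activation per viability signal from cell pellet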
T2 sequence (P10520 whole entry): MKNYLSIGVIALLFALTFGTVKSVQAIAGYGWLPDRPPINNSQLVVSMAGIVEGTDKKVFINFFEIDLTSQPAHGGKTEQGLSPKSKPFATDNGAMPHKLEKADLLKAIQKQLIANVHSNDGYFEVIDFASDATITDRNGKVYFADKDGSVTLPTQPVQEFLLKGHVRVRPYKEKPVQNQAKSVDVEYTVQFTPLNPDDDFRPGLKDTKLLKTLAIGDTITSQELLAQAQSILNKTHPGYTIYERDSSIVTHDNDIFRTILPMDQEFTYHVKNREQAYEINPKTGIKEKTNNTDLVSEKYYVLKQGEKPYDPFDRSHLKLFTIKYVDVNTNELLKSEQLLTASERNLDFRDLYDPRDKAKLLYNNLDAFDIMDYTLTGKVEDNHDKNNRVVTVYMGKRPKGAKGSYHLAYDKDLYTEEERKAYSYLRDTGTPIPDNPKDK

Caspase-3 = biological target: T3, Caspase-3 (Homo sapiens, UniProt P42574); type: functional;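 further: Dose-response selectivity test against caspase-3 for candidate inhibitors of sentrin-specific proteases (SENPs)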
T3 sequence (P42574 whole entry): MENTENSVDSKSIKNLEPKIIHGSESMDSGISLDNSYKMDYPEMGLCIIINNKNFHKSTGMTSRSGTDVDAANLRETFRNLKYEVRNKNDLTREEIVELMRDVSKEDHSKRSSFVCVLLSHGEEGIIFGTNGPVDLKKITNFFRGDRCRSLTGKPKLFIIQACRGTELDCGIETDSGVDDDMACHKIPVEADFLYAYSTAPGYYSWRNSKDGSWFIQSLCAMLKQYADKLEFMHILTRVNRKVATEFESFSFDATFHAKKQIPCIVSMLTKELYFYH

[7] = tested on: Streptococcus sp. 'group A'; assay: Streptococcus pyogenes SK(-)GAS viability under kanamycin – luminescence, BacTiterGlo, confirmation, counter-screen for streptokinase expression inhibitor project, dose response (AID 1900); type: functional, organism-based
[8] = biological target: T4, Sentrin-specific protease 6 (Homo sapiens, UniProt Q9GZR1); type: functional;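 further: Luminescence-based dose-response confirmatory assay of SENP6 inhibition, following up an ultra-high-throughput screen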
T4 sequence (Q9GZR1 whole entry): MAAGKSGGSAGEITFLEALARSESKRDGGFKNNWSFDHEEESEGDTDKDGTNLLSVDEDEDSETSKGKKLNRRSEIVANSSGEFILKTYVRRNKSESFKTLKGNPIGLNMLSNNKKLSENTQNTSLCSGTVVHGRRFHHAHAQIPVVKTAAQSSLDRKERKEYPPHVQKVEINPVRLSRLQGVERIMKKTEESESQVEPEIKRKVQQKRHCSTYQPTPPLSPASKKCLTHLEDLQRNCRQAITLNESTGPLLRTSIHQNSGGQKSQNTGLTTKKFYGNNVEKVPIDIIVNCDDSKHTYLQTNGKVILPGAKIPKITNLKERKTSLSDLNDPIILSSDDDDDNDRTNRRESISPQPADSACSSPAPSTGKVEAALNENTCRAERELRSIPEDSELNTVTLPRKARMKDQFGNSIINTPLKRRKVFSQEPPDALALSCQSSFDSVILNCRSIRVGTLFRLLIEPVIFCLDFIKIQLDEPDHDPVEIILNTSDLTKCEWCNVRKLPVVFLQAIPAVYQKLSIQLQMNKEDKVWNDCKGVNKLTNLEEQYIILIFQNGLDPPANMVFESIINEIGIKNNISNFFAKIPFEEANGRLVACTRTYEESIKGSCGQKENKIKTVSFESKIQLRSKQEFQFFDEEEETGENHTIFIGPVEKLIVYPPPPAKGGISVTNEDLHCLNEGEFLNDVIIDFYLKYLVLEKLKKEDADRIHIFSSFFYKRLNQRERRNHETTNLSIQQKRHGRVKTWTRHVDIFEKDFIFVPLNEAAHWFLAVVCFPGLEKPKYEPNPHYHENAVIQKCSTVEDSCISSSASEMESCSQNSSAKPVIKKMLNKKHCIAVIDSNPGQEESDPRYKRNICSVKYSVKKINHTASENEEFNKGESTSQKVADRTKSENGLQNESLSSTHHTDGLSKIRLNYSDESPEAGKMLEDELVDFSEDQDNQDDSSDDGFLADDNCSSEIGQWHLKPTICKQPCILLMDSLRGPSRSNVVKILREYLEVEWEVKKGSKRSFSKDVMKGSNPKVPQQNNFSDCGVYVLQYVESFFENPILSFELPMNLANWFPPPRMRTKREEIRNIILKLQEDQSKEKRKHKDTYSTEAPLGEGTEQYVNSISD

Streptococcus = assay: GAS UMAA2166 growth inhibition – luminescence, BacTiterGlo, counter-screen for streptokinase expression inhibitor project, dose response (AID 1915); type: functional, organism-based;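 further: potency for reduction of bacterial viability or growth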
[9] = biological target: T5, Sentrin-specific protease 7 (Homo sapiens, UniProt Q9BQF6); type: functional;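 further: Luminescence-based dose-response confirmation of ultra-high-throughput screening hits, measuring inhibition of SENP7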
T5 sequence (Q9BQF6 whole entry): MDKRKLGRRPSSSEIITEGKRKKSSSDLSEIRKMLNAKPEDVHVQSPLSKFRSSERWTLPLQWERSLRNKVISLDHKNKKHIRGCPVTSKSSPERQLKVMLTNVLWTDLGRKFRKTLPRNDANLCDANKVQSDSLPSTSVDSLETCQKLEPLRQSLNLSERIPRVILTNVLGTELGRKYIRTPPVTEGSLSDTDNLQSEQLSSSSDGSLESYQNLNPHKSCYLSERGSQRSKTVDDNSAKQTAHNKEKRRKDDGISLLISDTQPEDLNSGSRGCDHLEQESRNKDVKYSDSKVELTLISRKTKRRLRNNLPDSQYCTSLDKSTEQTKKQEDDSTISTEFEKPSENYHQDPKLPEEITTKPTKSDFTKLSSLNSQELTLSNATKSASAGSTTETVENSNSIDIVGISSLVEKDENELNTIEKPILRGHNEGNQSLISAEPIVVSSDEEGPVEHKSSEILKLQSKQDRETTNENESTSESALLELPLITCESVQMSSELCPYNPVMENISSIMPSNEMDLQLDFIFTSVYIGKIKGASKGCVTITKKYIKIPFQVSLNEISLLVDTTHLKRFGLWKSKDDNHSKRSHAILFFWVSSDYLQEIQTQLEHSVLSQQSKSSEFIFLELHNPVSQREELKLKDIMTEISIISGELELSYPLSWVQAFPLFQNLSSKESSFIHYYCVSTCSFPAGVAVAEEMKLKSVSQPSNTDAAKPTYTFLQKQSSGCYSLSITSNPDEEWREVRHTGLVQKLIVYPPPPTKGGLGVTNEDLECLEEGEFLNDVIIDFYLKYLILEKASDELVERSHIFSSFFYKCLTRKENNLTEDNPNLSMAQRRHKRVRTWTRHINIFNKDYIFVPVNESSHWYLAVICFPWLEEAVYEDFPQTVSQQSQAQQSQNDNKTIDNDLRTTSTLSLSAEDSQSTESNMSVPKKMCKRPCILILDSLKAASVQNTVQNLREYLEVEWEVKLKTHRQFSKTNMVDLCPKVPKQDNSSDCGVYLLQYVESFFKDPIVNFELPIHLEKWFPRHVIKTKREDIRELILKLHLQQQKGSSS

[10] = HEK-293T viability loss after treatment – luminescence, T-cell screen hits, cytotoxicity control for TCR NF-kB inhibitor project, dose response (AID 489026); type: functional, cell-based;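 further: cells exposed to compound about 14 hours before the viability readout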

Eukaryotic translation initiation factor 4E, sequence (P63073 whole entry, the tested form may be a part): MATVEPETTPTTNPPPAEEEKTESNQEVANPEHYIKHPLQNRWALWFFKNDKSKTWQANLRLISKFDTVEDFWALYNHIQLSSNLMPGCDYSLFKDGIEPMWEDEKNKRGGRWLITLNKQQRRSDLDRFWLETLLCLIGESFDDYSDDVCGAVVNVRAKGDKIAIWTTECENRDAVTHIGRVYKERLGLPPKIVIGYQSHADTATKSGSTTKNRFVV

In the case of `Cc1ccc(OCc2nnc(-c3ccccn3)[nH]2)cc1`, the IC50 [1] is reported as > 64 µM (inactive).
In the case of `C[C@@H]1CN([C@@H](C)CO)C(=O)c2cccc(NC(=O)c3ccc(-c4nccs4)cc3)c2O[C@H]1CN(C)CC1CC1`, the AC50 [2] is reported as 40.2 µM (active).
For `COCc1nnc(NC(=O)c2ccc(S(=O)(=O)N(C)c3ccccc3)cc2)o1`, the EC50 [3] was 18.3 µM (active), the CC50 [4] was 18.6 µM (active) and the EC50 [5] was 20.6 µM (active).
With `CN(C)c1ccc(/C=N/Nc2nc3ccccc3o2)cc1` the IC50 [6] was 1.74 µM (active), the EC50 (Streptokinase A) was > 150 µM (not active) and the IC50 (Caspase-3) was 2.05 µM (active). The EC50 [7] was > 150 µM (not active), the IC50 [8] was 1.72 µM (active) and the EC50 (Streptococcus) was > 150 µM (not active). For the same compound, the IC50 [9] was < 1.55 µM (active).
With `CC1CCCN(S(=O)(=O)c2ccc(C(=O)Nc3nnc(-c4ccncc4)o3)cc2)C1` (configuration not stated) the CC50 [4] was 12.7 µM (active).
With `COc1ccc([C@H]2[C@H](C(C)=O)N3N=Cc4ccccc4C3C23C(=O)OC(C)(C)OC3=O)cc1` (some centres not stated) the IC50 [1] was > 64 µM (inactive).
In the case of `O=C(O)C(Oc1ccc2cc(-c3ccc(Cl)cc3)c(=O)oc2c1)c1ccccc1` (configuration not stated), the IC50 [6] is reported as 31.8 µM (active), the IC50 (Caspase-3) is reported as 38.3 µM (active) and the IC50 [8] is reported as 31.3 µM (active). For the same compound, the IC50 [9] was 28.7 µM (active).
For `CCCC[C@@H](C)C[C@@H](C)C(=O)N(C)[C@@H](CC(C)C)C(=O)N[C@H](C(=O)N(C)[C@H](C(=O)N1C[C@@H](O)C[C@H]1C(=O)N1C(=O)C=C[C@@H]1C)C(C)C)C(C)OC(C)=O` (some centres not stated), the IC50 [10] was 18.6 µM (active).
With `COc1ccc(C(=O)Nc2ccccc2C(=O)NC(C(=O)NCc2ccco2)C(C)C)cc1` (configuration not stated) the EC50 [3] was 8.16 µM (active), the CC50 [4] was 16.9 µM (active) and the EC50 [5] was 4.63 µM (active).
